Where “and” joins values, the source holds several entries; their conditions need not be identical. Equal values may be shown once. Results filed as inconclusive are left out.
Test system: Lewis lung carcinoma i.m., BDF1 mice, T/C %
Test: NCI In Vivo Anticancer Drug Screen. Data for tumor model Lewis Lung Carcinoma (intramuscular) in B6D2F1 (BDF1) mice
Procedure, shortened: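 Tumour-bearing mice were dosed with compound, and either their survival or their tumour size was measured. Results were expressed relative to vehicle-treated controls as T/C.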

[1] = endpoint: mean tumor weight (est.), dose: 6.25 mg/kg/injection, schedule: Q01DX011 (ip), vehicle: saline, higher = larger tumour
[2] = endpoint: mean tumor weight (est.), dose: 12.5 mg/kg/injection, schedule: Q01DX011 (ip), vehicle: saline, higher = larger tumour

Compound: NC(Cc1ccc(N(CCCl)CCCl)cc1)C(=O)O (centres undefined)
- T/C (endpoint: mean tumor weight, dose: 1.0 mg/kg/injection, schedule: Q01DX011 (ip), vehicle: Klucel (hydroxypropylcellulose) (HPC), higher = larger tumour): 76 % of control
- T/C (endpoint: mean tumor weight, dose: 2.0 mg/kg/injection, schedule: Q01DX011 (ip), vehicle: Klucel (hydroxypropylcellulose) (HPC), higher = larger tumour): 99 % of control
- T/C (endpoint: mean tumor weight, dose: 4.0 mg/kg/injection, schedule: Q01DX011 (ip), vehicle: Klucel (hydroxypropylcellulose) (HPC), higher = larger tumour): 52 % of control
- T/C (endpoint: median survival time, dose: 1.0 mg/kg/injection, schedule: Q01DX011 (ip), vehicle: Klucel (hydroxypropylcellulose) (HPC), higher = longer survival): 110 % of control
- T/C (endpoint: median survival time, dose: 2.0 mg/kg/injection, schedule: Q01DX011 (ip), vehicle: Klucel (hydroxypropylcellulose) (HPC), higher = longer survival): 102 % of control

Compound: COc1cccc2c1C(=O)c1c(O)c3c(c(O)c1C2=O)C[C@@](O)(C(=O)CO)C[C@@H]3OC1CC(N)C(O)C(C)O1 (some centres undefined)
- T/C (endpoint: median survival time, dose: 0.25 mg/kg/injection, schedule: Q01DX011 (ip), vehicle: water, higher = longer survival): 100 % of control and 120 % of control
- T/C (endpoint: median survival time, dose: 0.65 mg/kg/injection, schedule: Q03HX008 (ip), vehicle: water, higher = longer survival): 100 % of control and 102 % of control
- T/C (endpoint: median survival time, dose: 1.08 mg/kg/injection, schedule: Q03HX008 (ip), vehicle: water, higher = longer survival): 123 % of control
- T/C (endpoint: median survival time, dose: 1.8 mg/kg/injection, schedule: Q03HX008 (ip), vehicle: water, higher = longer survival): 26 % of control
- T/C (endpoint: median survival time, dose: 3.0 mg/kg/injection, schedule: Q03HX008 (ip), vehicle: water, higher = longer survival): 17 % of control

Compound: CNC(=S)N/N=C/CCC/C=N/NC(=S)NC
- T/C (endpoint: mean tumor weight (est.), dose: 18.75 mg/kg/injection, schedule: Q01DX011 (ip), vehicle: saline with Tween-80, higher = larger tumour): 112 % of control
- T/C (endpoint: mean tumor weight (est.), dose: 37.5 mg/kg/injection, schedule: Q01DX011 (ip), vehicle: saline with Tween-80, higher = larger tumour): 91 % of control
- T/C (endpoint: mean tumor weight (est.), dose: 75.0 mg/kg/injection, schedule: Q01DX011 (ip), vehicle: saline with Tween-80, higher = larger tumour): 53 % of control
- T/C (endpoint: median survival time, dose: 18.75 mg/kg/injection, schedule: Q01DX011 (ip), vehicle: saline with Tween-80, higher = longer survival): 90 % of control
- T/C (endpoint: median survival time, dose: 37.5 mg/kg/injection, schedule: Q01DX011 (ip), vehicle: saline with Tween-80, higher = longer survival): 94 % of control
- T/C (endpoint: median survival time, dose: 75.0 mg/kg/injection, schedule: Q01DX011 (ip), vehicle: saline with Tween-80, higher = longer survival): 102 % of control

Compound: COc1ccc(C(=O)/C(Br)=C/C(=O)O)cc1
- T/C (endpoint: mean tumor weight, dose: 40.0 mg/kg/injection, schedule: Q01DX011 (ip), vehicle: saline, higher = larger tumour): 48 % of control

Compound: Nc1cc(I)c2cccnc2c1O
- T/C (endpoint: mean tumor weight (est.), dose: 6.25 mg/kg/injection, schedule: Q01DX011 (ip), vehicle: saline with Tween-80, higher = larger tumour): 87 % of control
- T/C (endpoint: mean tumor weight (est.), dose: 12.5 mg/kg/injection, schedule: Q01DX011 (ip), vehicle: saline with Tween-80, higher = larger tumour): 97 % of control
- T/C (endpoint: mean tumor weight (est.), dose: 25.0 mg/kg/injection, schedule: Q01DX011 (ip), vehicle: saline with Tween-80, higher = larger tumour): 87 % of control
- T/C (endpoint: median survival time, dose: 6.25 mg/kg/injection, schedule: Q01DX011 (ip), vehicle: saline with Tween-80, higher = longer survival): 114 % of control
- T/C (endpoint: median survival time, dose: 12.5 mg/kg/injection, schedule: Q01DX011 (ip), vehicle: saline with Tween-80, higher = longer survival): 108 % of control
- T/C (endpoint: median survival time, dose: 25.0 mg/kg/injection, schedule: Q01DX011 (ip), vehicle: saline with Tween-80, higher = longer survival): 104 % of control

Compound: CCn1cnc2c(=S)nc[nH]c21
- T/C (endpoint: mean tumor weight (est.), dose: 25.0 mg/kg/injection, schedule: Q01DX011 (ip), vehicle: Klucel (hydroxypropylcellulose) (HPC), higher = larger tumour): 110 % of control
- T/C (endpoint: mean tumor weight, dose: 1.56 mg/kg/injection, schedule: Q01DX011 (ip), vehicle: steriod suspending solution, higher = larger tumour): 81 % of control
- T/C (endpoint: mean tumor weight, dose: 6.25 mg/kg/injection, schedule: Q01DX011 (ip), vehicle: steriod suspending solution, higher = larger tumour): 86 % of control
- T/C (endpoint: median survival time, dose: 0.78 mg/kg/injection, schedule: Q01DX011 (ip), vehicle: Klucel (hydroxypropylcellulose) (HPC), higher = longer survival): 100 % of control
- T/C (endpoint: median survival time, dose: 1.56 mg/kg/injection, schedule: Q01DX011 (ip), vehicle: Klucel (hydroxypropylcellulose) (HPC), higher = longer survival): 104 % of control
- T/C (endpoint: median survival time, dose: 3.12 mg/kg/injection, schedule: Q01DX011 (ip), vehicle: Klucel (hydroxypropylcellulose) (HPC), higher = longer survival): 106 % of control
- T/C (endpoint: median survival time, dose: 6.25 mg/kg/injection, schedule: Q01DX011 (ip), vehicle: Klucel (hydroxypropylcellulose) (HPC), higher = longer survival): 102 % of control and 108 % of control
- T/C (endpoint: median survival time, dose: 12.5 mg/kg/injection, schedule: Q01DX011 (ip), vehicle: Klucel (hydroxypropylcellulose) (HPC), higher = longer survival): 106 % of control
- T/C (endpoint: median survival time, dose: 25.0 mg/kg/injection, schedule: Q01DX011 (ip), vehicle: Klucel (hydroxypropylcellulose) (HPC), higher = longer survival): 95 % of control and 104 % of control

Compound: COc1ccc2nc3cc(Cl)ccc3c(NCCO)c2c1
- T/C (endpoint: mean tumor weight (est.), dose: 34.37 mg/kg/injection, schedule: Q01DX011 (ip), vehicle: saline with Tween-80, higher = larger tumour): 19 % of control
- T/C (endpoint: mean tumor weight (est.), dose: 68.75 mg/kg/injection, schedule: Q01DX011 (ip), vehicle: saline with Tween-80, higher = larger tumour): 55 % of control
- T/C (endpoint: median survival time, dose: 34.36 mg/kg/injection, schedule: Q01DX011 (ip), vehicle: saline with Tween-80, higher = longer survival): 91 % of control
- T/C (endpoint: median survival time, dose: 68.75 mg/kg/injection, schedule: Q01DX011 (ip), vehicle: saline with Tween-80, higher = longer survival): 96 % of control

Compound: CCN1c2ccccc2C(Cl)(c2ccc(N(C)C)cc2)c2ccccc21
- T/C (endpoint: mean tumor weight (est.), dose: 3.13 mg/kg/injection, schedule: Q01DX011 (ip), vehicle: saline, higher = larger tumour): 121 % of control
- T/C [1]: 50 % of control
- T/C [2]: 47 % of control

Compound: OC1CCCC2CCC[N-]C12.OC1CCCC2CCC[N-]C12.[O]=[V][OH] (centres undefined)
- T/C [1]: 86 % of control
- T/C [2]: 70 % of control
- T/C (endpoint: mean tumor weight (est.), dose: 25.0 mg/kg/injection, schedule: Q01DX011 (ip), vehicle: saline, higher = larger tumour): 50 % of control
- T/C (endpoint: median survival time, dose: 6.25 mg/kg/injection, schedule: Q01DX011 (ip), vehicle: saline, higher = longer survival): 101 % of control
- T/C (endpoint: median survival time, dose: 12.5 mg/kg/injection, schedule: Q01DX011 (ip), vehicle: saline, higher = longer survival): 107 % of control
- T/C (endpoint: median survival time, dose: 25.0 mg/kg/injection, schedule: Q01DX011 (ip), vehicle: saline, higher = longer survival): 107 % of control

Compound: O=C(C[n+]1cc(Br)cc2ccccc21)c1ccc(O)c(O)c1
- T/C (endpoint: mean tumor weight (est.), dose: 28.75 mg/kg/injection, schedule: Q01DX011 (ip), vehicle: saline, higher = larger tumour): 90 % of control
- T/C (endpoint: mean tumor weight (est.), dose: 57.5 mg/kg/injection, schedule: Q01DX011 (ip), vehicle: saline, higher = larger tumour): 95 % of control
- T/C (endpoint: mean tumor weight (est.), dose: 115.0 mg/kg/injection, schedule: Q01DX011 (ip), vehicle: saline, higher = larger tumour): 63 % of control
- T/C (endpoint: mean tumor weight (est.), dose: 230.0 mg/kg/injection, schedule: Q01DX011 (ip), vehicle: saline, higher = larger tumour): 52 % of control

Compound: O=C1NC(=O)C(F)(F)C(O)N1 (centres undefined)
- T/C (endpoint: mean tumor weight (est.), dose: 40.0 mg/kg/injection, schedule: Q01DX011 (ip), vehicle: saline, higher = larger tumour): 103 % of control
- T/C (endpoint: mean tumor weight (est.), dose: 80.0 mg/kg/injection, schedule: Q01DX011 (ip), vehicle: saline, higher = larger tumour): 80 % of control
- T/C (endpoint: mean tumor weight (est.), dose: 160.0 mg/kg/injection, schedule: Q01DX011 (ip), vehicle: saline, higher = larger tumour): 43 % of control
- T/C (endpoint: median survival time, dose: 40.0 mg/kg/injection, schedule: Q01DX011 (ip), vehicle: saline, higher = longer survival): 98 % of control
- T/C (endpoint: median survival time, dose: 80.0 mg/kg/injection, schedule: Q01DX011 (ip), vehicle: saline, higher = longer survival): 103 % of control

Compound: O=P1(NCCCl)OCCCN1CCCl (centres undefined)
- T/C (endpoint: mean tumor weight, dose: 23.0 mg/kg/injection, schedule: Q01DX011 (ip), vehicle: water, higher = larger tumour): 101 % of control
- T/C (endpoint: mean tumor weight, dose: 39.0 mg/kg/injection, schedule: Q01DX011 (ip), vehicle: water, higher = larger tumour): 66 % of control
- T/C (endpoint: mean tumor weight, dose: 108.0 mg/kg/injection, schedule: Q01DX001 (ip), vehicle: water, higher = larger tumour): 72 % of control
- T/C (endpoint: mean tumor weight, dose: 180.0 mg/kg/injection, schedule: Q01DX001 (ip), vehicle: water, higher = larger tumour): 14 % of control
- T/C (endpoint: median survival time, dose: 23.0 mg/kg/injection, schedule: Q01DX011 (ip), vehicle: water, higher = longer survival): 118 % of control and 122 % of control
- T/C (endpoint: median survival time, dose: 39.0 mg/kg/injection, schedule: Q01DX011 (ip), vehicle: water, higher = longer survival): 94 % of control and 124 % of control
- T/C (endpoint: median survival time, dose: 65.0 mg/kg/injection, schedule: Q07DX Z (ip), vehicle: water, higher = longer survival): 110 % of control
- T/C (endpoint: median survival time, dose: 108.0 mg/kg/injection, schedule: Q01DX001 (ip), vehicle: water, higher = longer survival): 88 % of control and 98 % of control
- T/C (endpoint: median survival time, dose: 108.0 mg/kg/injection, schedule: Q01DX011 (ip), vehicle: water, higher = longer survival): 104 % of control
- T/C (endpoint: median survival time, dose: 108.0 mg/kg/injection, schedule: Q04DX Z (ip), vehicle: water, higher = longer survival): 98 % of control
- T/C (endpoint: median survival time, dose: 108.0 mg/kg/injection, schedule: Q07DX Z (ip), vehicle: water, higher = longer survival): 112 % of control
- T/C (endpoint: median survival time, dose: 180.0 mg/kg/injection, schedule: Q01DX001 (ip), vehicle: water, higher = longer survival): 114 % of control
- T/C (endpoint: median survival time, dose: 180.0 mg/kg/injection, schedule: Q07DX Z (ip), vehicle: water, higher = longer survival): 104 % of control
- T/C (endpoint: median survival time, dose: 300.0 mg/kg/injection, schedule: Q01DX001 (ip), vehicle: water, higher = longer survival): 164 % of control and 178 % of control
- T/C (endpoint: median survival time, dose: 300.0 mg/kg/injection, schedule: Q04DX Z (ip), vehicle: water, higher = longer survival): 120 % of control
- T/C (endpoint: median survival time, dose: 300.0 mg/kg/injection, schedule: Q07DX Z (ip), vehicle: water, higher = longer survival): 158 % of control

Compound: O=c1[nH]cc(N(CCCl)CCCl)c(=O)[nH]1
- T/C (endpoint: median survival time, dose: 0.13 mg/kg/injection, schedule: Q01DX011 (ip), vehicle: other, higher = longer survival): 104 % of control
- T/C (endpoint: median survival time, dose: 0.25 mg/kg/injection, schedule: Q01DX011 (ip), vehicle: other, higher = longer survival): 110 % of control
- T/C (endpoint: median survival time, dose: 0.5 mg/kg/injection, schedule: Q01DX011 (ip), vehicle: other, higher = longer survival): 102 % of control
- T/C (endpoint: median survival time, dose: 0.5 mg/kg/injection, schedule: Q01DX011 (ip), vehicle: saline, higher = longer survival): 92 % of control

From PubChem BioAssay AID272 (DTP/NCI, 2004)
